The IC50 is the concentration at which inhibition is half-maximal. Low readings indicate greater potency, high ones weaker potency.

Results on eleven compounds are retold here after patent US9376425B2, “Heterocyclic compounds as MDM2 inhibitors for the treatment of cancer” (AMGEN INC., priority 2011, dated 2016).

T1 sequence (Q00987 1-188): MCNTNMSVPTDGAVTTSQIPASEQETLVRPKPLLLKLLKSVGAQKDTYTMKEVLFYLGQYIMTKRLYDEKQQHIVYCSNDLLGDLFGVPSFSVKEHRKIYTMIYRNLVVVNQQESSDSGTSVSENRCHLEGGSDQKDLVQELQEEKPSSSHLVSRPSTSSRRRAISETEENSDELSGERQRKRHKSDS

The test concerns the target T1, human MDM2 (GST-hMDM2 1-188), interaction with biotinylated-p53 (1-83) (Homo sapiens, UniProt Q00987).
T1 construct: Amino acid residues 1-188 of human MDM2 were expressed; made in house; host or cells: Escherichia coli
As to the kind of experiment: improved HTRF assay (HTRF2 assay), inhibition of HDM2-p53 interaction. In kind it is binding. The note with it: 0.2 nM GST-hMDM2, 0.5 nM biotinylated-p53, 100 mM KF. The method, boiled down:
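Time-resolved fluorescence (HTRF) read after >4 h equilibration with SA-XLent/anti-GST cryptate/KF detection reagents. Reaction: compound plus GST-hMDM2 for 20 min at room temperature, then E. coli-expressed biotinylated p53 residues 1-83 for 60 min, 2% DMSO final. Inhibition expressed versus nutlin-3.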
For orientation: TR-FRET usually uses a lanthanide donor and a delayed reading to cut background.
`CC[C@@H](CS(=O)(=O)N1CCC[C@H]1C)N1C(=O)[C@@H](CC(=O)O)O[C@H](c2cccc(Cl)c2)[C@H]1c1ccc(Cl)cc1` (single isomer, unassigned) [Example 211, 2-((2R,5R,6R)-6-(3-chlorophenyl)-5-(4-chlorophenyl)-4-((S)-1-(((R)-2-methylpyrrolidin-1-yl)sulfonyl)butan-2-yl)-3-oxomorpholin-2-yl)acetic acid or 2-((2S,5R,6R)-6-(3-chlorophenyl)-5-(4-chlorophenyl)-4-((S)-1-(((R)-2-methylpyrrolidin-1-yl)sulfonyl)butan-2-yl)-3-oxomorpholin-2-yl)acetic acid] had a concentration for half-maximal inhibition (IC50) of 4 nM. In turn, “2-((2R,5R,6R)-6-(3-Chlorophenyl)-5-(4-chlorophenyl)-4-((3S,5R)-5-hydroxyhexan-3-yl)-3-oxomorpholin-2-yl)acetic acid or 2-((2R,5R,6R)-6-(3-Chlorophenyl)-5-(4-chlorophenyl)-4-((3S,5S)-5-hydroxyhexan-3-yl)-3-oxomorpholin-2-yl)acetic acid [Example 127]” returned an IC50 of 34 nM. Turning to `C[C@@H](CSC(C)(C)C)N1C(=O)CO[C@H](c2cccc(Cl)c2)[C@H]1c1ccc(Cl)cc1` [Example 222, (5R,6R)-4-((S)-1-(tert-butylthio)propan-2-yl)-6-(3-chlorophenyl)-5-(4-chlorophenyl)morpholin-3-one], 170 nM corresponded to half-maximal inhibition (IC50). As for `O=C1[C@@H](Cc2ncn[nH]2)O[C@H](c2cccc(Cl)c2)[C@@H](c2ccc(Cl)cc2)N1[C@H](CN(c1ccccc1F)S(=O)(=O)C1CC1)C1CC1` (single isomer, unassigned) [Example 396, N-((S)-2-((2R,5R,6R)-2-((1H-1,2,4-Triazol-5-yl)methyl)-6-(3-chlorophenyl)-5-(4-chlorophenyl)-3-oxomorpholino)-2-cyclopropylethyl)-N-(2-fluorophenyl)cyclopropanesulfonamide or N-((S)-2-((2S,5R,6R)-2-((1H-1,2,4-triazol-5-yl)methyl)-6-(3-chlorophenyl)-5-(4-chlorophenyl)-3-oxomorpholino)-2-cyclopropylethyl)-N-(2-fluorophenyl)cyclopropanesulfonamide], the figure is 2 nM; as for `CC(C)(C)S(=O)(=O)C[C@H](C1CC1)N1C(=O)[C@@H](CC(=O)Nc2ccccc2)O[C@H](c2cccc(Cl)c2)[C@H]1c1ccc(Cl)cc1` (single isomer, unassigned) [Example 351, 2-((2R,5R,6R)-4-((S)-2-(tert-Butylsulfonyl)-1-cyclopropylethyl)-6-(3-chlorophenyl)-5-(4-chlorophenyl)-3-oxomorpholin-2-yl)-N-phenylacetamide or 2-((2S,5R,6R)-4-((S)-2-(tert-butylsulfonyl)-1-cyclopropylethyl)-6-(3-chlorophenyl)-5-(4-chlorophenyl)-3-oxomorpholin-2-yl)-N-phenylacetamide], 4 nM. Consider `CC[C@@H](CS(=O)(=O)C(C)(C)C)N1C(=O)[C@@H](CC(=O)O)O[C@H](c2cccc(Cl)c2)[C@H]1c1ccc(Cl)c(F)c1` (single isomer, unassigned) [Example 183, 2-((2R,5R,6R)-4-((S)-1-(tert-butylsulfonyl)butan-2-yl)-5-(4-chloro-3-fluorophenyl)-6-(3-chlorophenyl)-3-oxomorpholin-2-yl)acetic acid or 2-((2S,5R,6R)-4-((S)-1-(tert-butylsulfonyl)butan-2-yl)-5-(4-chloro-3-fluorophenyl)-6-(3-chlorophenyl)-3-oxomorpholin-2-yl)acetic acid], for which the 50% inhibitory concentration (IC50) is 178 nM. `C[C@H]1CCCN1S(=O)(=O)C[C@H](C1CC1)N1C(=O)[C@@](C)(CC(=O)O)O[C@H](c2cccc(Cl)c2)[C@H]1c1ccc(Cl)cc1` (single isomer, unassigned) [Example 337, 2-((2R,5R,6R)-6-(3-Chlorophenyl)-5-(4-chlorophenyl)-4-((S)-1-cyclopropyl-2-(((S)-2-methylpyrrolidin-1-yl)sulfonyl)ethyl)-2-methyl-3-oxomorpholin-2-yl)acetic acid or 2-((2S,5R,6R)-6-(3-chlorophenyl)-5-(4-chlorophenyl)-4-((S)-1-cyclopropyl-2-(((S)-2-methylpyrrolidin-1-yl)sulfonyl)ethyl)-2-methyl-3-oxomorpholin-2-yl)acetic acid] showed a half-inhibitory concentration (IC50) of 50 nM. As to `CC(C)(C)S(=O)(=O)C[C@H](C1CC1)N1C(=O)[C@@H](CC(=O)NCC(F)(F)F)O[C@H](c2cccc(Cl)c2)[C@H]1c1ccc(Cl)cc1` (single isomer, unassigned) [Example 346, 2-((2R,5R,6R)-4-((S)-2-(tert-Butylsulfonyl)-1-cyclopropylethyl)-6-(3-chlorophenyl)-5-(4-chlorophenyl)-3-oxomorpholin-2-yl)-N-(2,2,2-trifluoroethyl)acetamide or 2-((2S,5R,6R)-4-((S)-2-(tert-butylsulfonyl)-1-cyclopropylethyl)-6-(3-chlorophenyl)-5-(4-chlorophenyl)-3-oxomorpholin-2-yl)-N-(2,2,2-trifluoroethyl)acetamide], the midpoint of inhibition, the IC50, lay at 21 nM. As for `NC(=O)C[C@H]1O[C@H](c2cccc(Cl)c2)[C@@H](c2ccc(Cl)cc2)N([C@H](CN(c2ccccc2F)S(=O)(=O)C2CC2)C2CC2)C1=O` (single isomer, unassigned) [Example 257, 2-((2R,5R,6R)-6-(3-chlorophenyl)-5-(4-chlorophenyl)-4-((S)-1-cyclopropyl-2-(N-(2-fluorophenyl)cyclopropanesulfonamido)ethyl)-3-oxomorpholin-2-yl)acetamide or 2-((2S,5R,6R)-6-(3-chlorophenyl)-5-(4-chlorophenyl)-4-((S)-1-cyclopropyl-2-(N-(2-fluorophenyl)cyclopropanesulfonamido)ethyl)-3-oxomorpholin-2-yl)acetamide], the IC50 was less than 1 nM. With `CC(C)(C)S(=O)(=O)C[C@H](C1CC1)N1C(=O)[C@@H](CC(=O)O)O[C@H](c2cccc(Cl)c2)[C@H]1c1ccc(Cl)c(F)c1` (single isomer, unassigned) [Example 309, 2-((2R,5R,6R)-4-((S)-2-(tert-Butylsulfonyl)-1-cyclopropylethyl)-5-(4-chloro-3-fluorophenyl)-6-(3-chlorophenyl)-3-oxomorpholin-2-yl)acetic acid or 2-((2S,5R,6R)-4-((S)-2-(tert-butylsulfonyl)-1-cyclopropylethyl)-5-(4-chloro-3-fluorophenyl)-6-(3-chlorophenyl)-3-oxomorpholin-2-yl)acetic acid] the figure was 1 nM; with `O=C(O)C[C@H]1O[C@H](c2cccc(Cl)c2)[C@@H](c2ccc(Cl)cc2)N([C@H](CN(c2cc(F)ccc2F)S(=O)(=O)C2CC2)C2CC2)C1=O` (single isomer, unassigned) [Example 275, 2-((2R,5R,6R)-6-(3-Chlorophenyl)-5-(4-chlorophenyl)-4-((S)-1-cyclopropyl-2-(N-(2,5-difluorophenyl)cyclopropanesulfonamido)ethyl)-3-oxomorpholin-2-yl)acetic acid or 2-((2S,5R,6R)-6-(3-chlorophenyl)-5-(4-chlorophenyl)-4-((S)-1-cyclopropyl-2-(N-(2,5-difluorophenyl)cyclopropanesulfonamido)ethyl)-3-oxomorpholin-2-yl)acetic acid], less than 1 nM.
